The values below come from patent publication US9241928B2, “Antimicrobial compounds” (The General Hospital Corporation, priority 2009, dated 2016).

In brackets after ≈: the same amount, converted by molar mass.

One experiment concerns E. faecalis MMH594. Briefly: MIC assay, E. faecalis in vitro. To be noted: Enterococcus faecalis; E. faecalis MMH594 in 20% BHI, 80% M9, 37° C., 15 hours, scored by eye. The experiment is classed as cell-based. On the procedure: A culture of E. faecalis MMH594 was grown overnight in BHI broth to stationary phase at 37° C. with aeration. The culture was diluted to an approximate density of […] in worm infection media (20% BHI, 80% M9 buffer). 12.5 μl of the bacterial culture dilution was inoculated into 384-well plates containing 12.5 μl of 2-fold serial dilutions of a test compound. […] Plates were incubated at 37° C. for 15 hours and scored by eye for bacterial growth.

Experiment [1] relates to C. elegans infected with E. faecalis. The experiment can be described thus: Dose response time courses in the C. elegans-E. faecalis infection assay. Format: in vivo, Caenorhabditis elegans. To be noted: Effective Concentration: survival significantly different from mock-treated, p-value <0.05, logrank; read-out: EC. The protocol: (§1) glp-4(bn2); sek-1 (km4) mutant worms were grown to gravid adult stage. 1,000 worms at the L1 stage were grown for 5.2 days at 15° C. on 9-cm plates of SK agar media spread with a lawn of E. coli strain HB101. Embryos from the gravid adults were isolated by a previously described hypochlorite method (see Tan et al., (1999) Proc. Natl. Acad. Sci. USA 96, 715-720) and hatched at 15° C. for 2 days. Approximately 4,500 of the Ll hatchlings were grown on each 9-cm plate of SK-NS agar (SK media with 62.5 U/ml nystatin and 100 μg/ml streptomycin) and with lawns of E. coli HB101. These worms were grown at 25° C. for 52 hours to generate sterile, young adults.
(§2) A culture of E. faecalis MMH594 was grown in BHI broth (BD Difco) with 80 μg/ml kanamycin at 37° C. for 6 hours and 100 μl of the culture were spread onto each 9-cm plate of BHI agar containing 80 μg/mlkanamycin. Lawns of E. faecalis were grown at 25° C. for 16 hours and transferred to 15° C. for 8 hours.
(§3) Sterile adult worms were resuspended in M9 buffer and washed twice with M9 in a 1:10 ratio to remove E. coli. 8,000 worms were pipetted onto each lawn of E. faecalis and incubated 15 hours at 15° C. After infection, the worms were resuspended in M9 and used as described below. 384-well plates (Corning #3712) were filled with 55 μl media (see below) using a Thermo Scientific MULTIDROP Combi reagent dispenser. 0.3 μl of a candidate compound in DSMO were pin transferred into each well using a CyBio CYBI-Well vario transfer system. The plates were agitated using an Eppendorf MIXMATE at 1,800 rpm for 15 seconds. Using the Union Biometrica Complex Object Parametric Analyzer and Sorter (COPAS) BIOSORT worm sorter according to manufacturer's protocols, 15 of the infected worms were transferred to each well in a total volume of approximately 15 μl. Total volume per well is 70 μl/well with a final composition of the media being 20% BHI, […], 80 μg/ml kanamycin, 62.5 U/ml nystatin, 1% DMSO, and 19% sheath solution (Union Biometrica Part #300-5101-000). Plates were vortexed for 5 seconds, centrifuged at 1000×g for 10 seconds, and sealed with gas permeable membranes (BREATHEASY Diversified). Plates were placed in a single layer on the top shelves in a 26.3° C. incubator at 85% relative humidity (RH) and incubated without agitation for 5 days.
The dose dependence of certain antimicrobial compounds identified by the assay above were studied. These compounds were purchased in a larger amount from commercial sources. For each of these compounds, an infection assay was performed essentially as described above at different concentrations except that SYTOX staining was not used. Instead, bright-field images of the wells were acquired at daily time points and scored manually for worm survival by analyzing worm body positioning. […] All compounds used in this assays were confirmed for their identity and purity by liquid chromatography/mass spectrometry.

Experiment [2] has as its system MRSA infection in Caenorhabditis elegans. Briefly: MRSA infection assay in C. elegans (liquid). To be noted: 5 days. The experiment is classed as in vivo. The source says:
To screen/test candidate compounds for their efficacy against Methicillin-resistant Staphylococcus aureus (MRSA) using Caenorhabditis elegans (C. elegans), a liquid high throughput screening assay was developed. In contrast to the Enterococcus faecalis infection assay, where worms are pre-infected with E. faecalis on agar prior to the start of the screening assay and then infected worms are transferred to microtiter plates using the COPAS BioSort robot, the infection of worms with MRSA occurred directly in the liquid medium. This liquid infection protocol with MRSA was developed because the COPAS BioSort, the large particle sorter used to dispense worms into multiwell plates, is a pressurized system that can generate aerosols. Because MRSA is a potentially dangerous pathogen for immune competent individuals, sorting MRSA-infected worms in the COPAS BioSort was deemed to be potentially hazardous.
The MRSA infection assay was carried out by incubating C. elegans with three MRSA strains (i.e., USA100, USA400 and MW2) in 96 or 384-well microtiter plates and assessing whether worms were live or dead after a 5 day incubation.
The MRSA infection assay was performed as follows: Worms were grown on agar using non-pathogenic E. coli as a food source until they reached the L4/young adult stage. A small volume of M9 buffer was added to the agar plates to float worms gently off the food source. The worms were then transferred into a large conical tube and washed 2 times by allowing worms to settle, aspirating the supernatant and adding fresh M9 buffer. 15 worms were then transferred using a COPAS BioSort large particle sorter into a 96-well plate containing […] of M9. […] After the worms were stained for 18 hours, images of the plates were acquired in bright field and red fluorescence channels using a Molecular Devices Discovery-1 or ImageXpress automated microscopy system. The total number of worms was counted in the bright field image and the number of dead animals are determined by positive SYTOX staining. […]

The test system of experiment [3] is E. faecalis strain MMH594. Briefly: Antimicrobial (bacterial killing) assay. The experiment is classed as cell-based, Enterococcus faecalis. As to conditions: mM concentrations, 1 to 30 minutes, room temperature. On the procedure:
Compounds 6, 7, 15 were purchased from TimTec and ChemDiv, dissolved in DMSO at a concentration of 5 or 10 mg/ml, and further diluted in DMSO as indicated. E. faecalis strain MMH594 was grown overnight with aeration at 37° C. in Bacto brain heart infusion (BHI) broth (Becton Dickinson), transferred to ice, and washed in phosphate-buffered saline (PBS; pH 7.2). Equal volumes of a dissolved compound and bacteria were mixed, incubated at room temperature for 1 to 30 minutes, ten-fold serially diluted in PBS, and plated in […] droplets on BHI agar plates. Plates were incubated at room temperature until colonies were visible.

Experiment [4] deals with C. elegans infected with E. faecalis. Briefly: Automated infection assay for primary compound screening (SYTOX staining, CELLPROFILER). Format: in vivo, Caenorhabditis elegans. On the procedure: In general, the area of each well that is SYTOX-positive in the fluorescence image is measured and normalized by the total area occupied by all worms, which is quantified in the bright field image. This typically requires illumination correction to flatten lighting abnormalities, adaptive thresholding, and size- and contrast-based filters and masks to exclude debris and other artifacts. By calculating the ratio of the fluorescent area (which corresponds to the area occupied by dead worms) to the total area occupied by all worms, one can accurately determine the number of dead worms in each well. […] In a well where the worms are rescued by ampicillin treatment, 3 of the 14 worms were dead based on manual scoring. The ratio of the fluorescent area to the area occupied by all worms obtained by the CELLPROFILER analysis is correspondingly low at 0.12.
as §1, §2, §3
After 5 days, the bacteria and liquid media in the assay plates were removed as described below. First, the bacteria were re-suspended by shaking on the MIXMATE for 15 seconds at 1,800 rpm, the sealing membrane was removed, and the worms were allowed to settle to the bottom of the wells for 3 minutes. […]

A word on the MIC: it is the least concentration at which growth counts as inhibited. Read a low MIC as greater potency. In turn, `Oc1c(C(Nc2ccccn2)c2ccccc2F)cc(Cl)c2cccnc12` (stereo not shown) [Compound 1] yielded an MIC against E. faecalis MMH594 of 12.5 µg/mL (≈ 32.9 µM). Besides, the minimal effective concentration in experiment [1] stood at 0.78 µg/mL.
In the experiment on E. faecalis MMH594, `Oc1c(C(Nc2ccccn2)c2cccc(F)c2)cc(Cl)c2cccnc12` (stereo not shown) [Compound 2] gave a minimum inhibitory concentration (MIC) of 25 µg/mL (≈ 65.8 µM). In addition, in experiment [1], the minimal effective concentration worked out at 1.56 µg/mL.
Take `Oc1c(C(Nc2ccccn2)c2ccccn2)cc(Cl)c2cccnc12` (stereo not shown) [Compound 3]: the “survival of MRSA-infected worms (FIG. 4)” value in experiment [2] (6.25 and 12.5 μg/ml) is reported as “resulted in survival of MRSA-infected worms”. Moreover, inhibition of growth with E. faecalis MMH594 (MIC) required 12.5 µg/mL (≈ 34.5 µM). Moreover, the minimal effective concentration in experiment [1] was 3.13 µg/mL.
In the experiment on E. faecalis MMH594, `CC(C)(C)C1=NN(c2nc3ccc(Cl)cc3s2)C(=O)C1` [Compound 4] came in with an MIC of 1.56 µg/mL (≈ 5.07 µM). For the same compound, the minimal effective concentration in experiment [1] amounted to 0.39 µg/mL.
Turning to `O=C(CCSCc1ccc(Cl)cc1)N1CCN(c2ccccc2)CC1` [Compound 7], the “bactericidal activity (FIGS. 7A and 7B)” value in experiment [3] was “did not show any bactericidal activity”. The MIC in the experiment with E. faecalis MMH594 was over 100 µg/mL. For the same compound, in experiment [1], the minimal effective concentration stood at 25 µg/mL.
Turning to `CSc1ccc(-c2cccs2)nn1` [Compound 8], the minimal inhibitory concentration (MIC) against E. faecalis MMH594 is over 100 µg/mL. The minimal effective concentration in experiment [1] was 3.13 µg/mL.
With `Cc1c(O)ccc(/C=N/Nc2nc(-c3ccc(Br)cc3)nc3ccccc23)c1O` [Compound 9], in experiment [2] (25 and 50 μg/ml), the “survival of MRSA-infected worms (FIG. 4)” value is “resulted in survival of MRSA-infected worms”. The minimum inhibitory concentration (MIC) in the experiment on E. faecalis MMH594 is over 100 µg/mL. Besides, the minimal effective concentration in experiment [1] amounted to 3.13 µg/mL.
Regarding `CC(=O)O` [acetic acid, reference compound], the “bactericidal activity (FIGS. 7A and 7B)” value in experiment [3] is “did not show any bactericidal activity”.
Consider `CC1(C)S[C@@H]2[C@H](NC(=O)[C@H](N)c3ccccc3)C(=O)N2[C@H]1C(=O)O` [ampicillin], for which the “z-score, screen average” value in experiment [4] (ampicillin-treated wells, 21 μg/ml) was −8.70. Besides, the “dead worms based on manual scoring” value in experiment [4] (of 14 worms in the well, ampicillin treatment) came out at 3. Moreover, in experiment [4] (well where worms are rescued by ampicillin treatment), the “ratio of the fluorescent area to the area occupied by all worms (CELLPROFILER)” value was found to be 0.12.
On to `CCC(=O)O` [propionic acid, reference compound], for which, in experiment [3], the “bactericidal activity (FIGS. 7A and 7B)” value is reported as “did not show any bactericidal activity”.
